Several values for one entry are separate records, joined by “and”; a condition that tells them apart may be missing. Equal values may be shown once.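 How tested: cells in 96-well plates exposed to compound for 48 hours at five concentrations. GI50 marks 50% less growth. The concentration for full growth arrest is given as TGI.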
Experiments:
Assay in all cases: DTP human tumour cell line panel, 48 h
COLO 205 colon = test system: COLO 205 colon
OVCAR-5 ovarian = test system: OVCAR-5 ovarian
HCT-116 colon = test system: HCT-116 colon
BT-549 breast = test system: BT-549 breast
U251 CNS = test system: U251 CNS
SF-539 CNS = test system: SF-539 CNS
SK-MEL-28 melanoma = test system: SK-MEL-28 melanoma
HOP-92 NSCLC = test system: HOP-92 NSCLC
SR leukemia = test system: SR leukemia
HL-60(TB) leukemia = test system: HL-60(TB) leukemia

| Structure (SMILES) | GI50 (COLO 205 colon) | TGI (COLO 205 colon) | GI50 (OVCAR-5 ovarian) | TGI (OVCAR-5 ovarian) | GI50 (HCT-116 colon) | TGI (HCT-116 colon) | GI50 (BT-549 breast) | TGI (BT-549 breast) | GI50 (U251 CNS) | TGI (U251 CNS) | GI50 (SF-539 CNS) | TGI (SF-539 CNS) | GI50 (SK-MEL-28 melanoma) | TGI (SK-MEL-28 melanoma) | GI50 (HOP-92 NSCLC) | TGI (HOP-92 NSCLC) | GI50 (SR leukemia) | TGI (SR leukemia) | GI50 (HL-60(TB) leukemia) | TGI (HL-60(TB) leukemia) |
| --- | --- | --- | --- | --- | --- | --- | --- | --- | --- | --- | --- | --- | --- | --- | --- | --- | --- | --- | --- | --- |
| Cc1ccc(-c2nc(N3CCNCC3)c3oc(-c4ccccc4)nc3n2)cc1 | 1.81 µM | 3.53 µM | 1.68 µM | 3.36 µM | 1.85 µM | 3.29 µM | 13.8 µM | 31.6 µM | 1.79 µM | 3.24 µM | 1.78 µM | 3.28 µM | 1.91 µM | 3.39 µM | 1.66 µM | 3.36 µM | 1.26 µM | 3.24 µM | 1.43 µM | 3.09 µM |
| COc1cccc(C2=C(c3cn(C)c4cc(F)ccc34)C(=O)NC2=O)c1 | 10.9 µM | > 25 µM | > 25 µM | > 25 µM | 8.59 µM | > 25 µM | > 24 µM | > 25 µM | > 17.2 µM | > 25 µM | > 25 µM | > 25 µM | > 25 µM | > 25 µM | > 25 µM | > 25 µM | 6.72 µM | > 25 µM | 13.6 µM | > 25 µM |
| COc1ccc2nc3cc([N+](=O)[O-])ccc3c(NNc3ccccc3)c2c1 | 17.1 µM | 37.5 µM and 29.5 µM | 14.9 µM | 47.2 µM and > 100 µM | – | 28.2 µM and 28.6 µM | 15.9 µM | 35.7 µM and > 100 µM | 8.08 µM | 22 µM and > 100 µM | 11.7 µM | 26.4 µM and 75 µM | 15.3 µM | 34.9 µM and > 100 µM | 11.5 µM | 28 µM and 47.4 µM | – | 61.8 µM | – | 59.8 µM and > 84 µM |
| NC(Cc1c[nH]c2ccc(F)cc12)C(=O)O (centres undefined) | 340 µM | 1010 µM | 814 µM | > 2500 µM | 853 µM | > 2500 µM | 580 µM | 1620 µM | 728 µM | > 2500 µM | 506 µM | 1590 µM | 795 µM | > 2500 µM | – | > 2500 µM | 1200 µM | > 2500 µM | 737 µM | > 2500 µM |
| CC(C)(C)NC(=O)[C@H]1CC[C@H]2[C@@H]3CC[C@H]4NC(=O)C=C[C@]4(C)[C@H]3CC[C@]12C | > 100 µM | > 100 µM | > 100 µM | > 100 µM | > 100 µM | > 100 µM | 81.9 µM and > 100 µM | > 100 µM | > 100 µM | > 100 µM | > 100 µM | > 100 µM | > 100 µM | > 100 µM | 30.3 µM | > 100 µM | > 100 µM | > 100 µM | 41.6 µM and > 100 µM | > 100 µM |
| C[C@@H](NC(=O)c1ncnc(N)c1Cl)c1ncc(C(=O)Nc2cc(C(F)(F)F)c(Cl)cn2)s1 | 0.616 µM | 24.3 µM | 5.88 µM | > 90.5 µM | 3.17 µM | > 68.9 µM | 22.1 µM | 81.2 µM | 19.5 µM | > 68.5 µM | 20.3 µM | > 78.4 µM | 0.696 µM | 15.8 µM | 1.46 µM | 9.44 µM | 15.3 µM | 64.5 µM | 3.3 µM | 29 µM |
| O=CNc1ccc(S(=O)(=O)c2ccc(NC=O)cc2)cc1 | – | > 100 µM | – | > 100 µM | – | > 100 µM | – | > 100 µM | – | > 100 µM | – | > 100 µM | – | > 100 µM | – | > 100 µM | – | > 100 µM | – | > 100 µM |
| CCN(CC)CCC(CNc1ccnc2cc(Cl)ccc12)c1ccccc1 (centres undefined) | 1.45 µM | 3.33 µM | 16.9 µM | 73.3 µM | 2.8 µM | 15.4 µM | 10.8 µM | 24.6 µM | 3.93 µM | 14 µM | 1.81 µM | 4.11 µM | 1.92 µM | 3.45 µM | 4.51 µM | 21 µM | 2.23 µM | 8.48 µM | 4.22 µM | 29.2 µM |
| COC1=C(OC)C(=O)C(Sc2ccc3ccccc3c2)=CC1=O | – | 23.7 µM | – | 37.2 µM | – | 25.9 µM | – | 22.5 µM | – | 21.4 µM | – | > 57.7 µM | – | 41.5 µM | – | 45.6 µM | – | 7.95 µM | – | 3.35 µM |
| Nc1nnnc2nc[nH]c12 | 1.85 µM | 7.47 µM | 0.623 µM | > 100 µM | 0.639 µM | > 100 µM | 1.03 µM | > 25.2 µM | 2.39 µM | > 100 µM | 1.63 µM | 13.5 µM | – | > 45.8 µM | 0.622 µM | > 100 µM | – | > 100 µM | 1.92 µM | > 100 µM |
